The target of assay [1] is T1, human cannabis CB1 receptor (Homo sapiens, UniProt P21554).
T1 construct: expressed in transfected cells; host or cells: human embryonic kidney (HEK) cells, Semliki Forest Virus system, membrane preparation
Put plainly: Affinity for cannabinoid CB1 receptors, [3H]-CP-55,940 radioligand binding on HEK cell membranes. The method, then:
The affinity of the compounds of the invention for cannabinoid CB1 receptors was determined using membrane preparations of human embryonic kidney (HEK) cells in which the human cannabis CB1 receptor is transiently transfected using the Semliki Forest Virus system in conjunction with [3H]-CP-55,940 as radioligand. After incubation of a freshly prepared cell membrane preparation with the [3H]-ligand, with or without addition of compounds of the invention, separation of bound and free ligand was performed by filtration over glassfiber filters. Radioactivity on the filter was measured by liquid scintillation counting.
The compounds of formula (I) show an excellent affinity for the CB1 receptor, determined with the experimental conditions described in Devane et al. Mol. Pharmacol. 34 (1988) 605-613.

The conditions of assay [2]: doses of 10 and 20 mg daily; cited from earlier work.
For assay [3] the following is noted: wild-type versus CB1 receptor knockout mice; cited from earlier work.

The structures appear in SMILES notation.

T1 sequence (P21554 whole entry): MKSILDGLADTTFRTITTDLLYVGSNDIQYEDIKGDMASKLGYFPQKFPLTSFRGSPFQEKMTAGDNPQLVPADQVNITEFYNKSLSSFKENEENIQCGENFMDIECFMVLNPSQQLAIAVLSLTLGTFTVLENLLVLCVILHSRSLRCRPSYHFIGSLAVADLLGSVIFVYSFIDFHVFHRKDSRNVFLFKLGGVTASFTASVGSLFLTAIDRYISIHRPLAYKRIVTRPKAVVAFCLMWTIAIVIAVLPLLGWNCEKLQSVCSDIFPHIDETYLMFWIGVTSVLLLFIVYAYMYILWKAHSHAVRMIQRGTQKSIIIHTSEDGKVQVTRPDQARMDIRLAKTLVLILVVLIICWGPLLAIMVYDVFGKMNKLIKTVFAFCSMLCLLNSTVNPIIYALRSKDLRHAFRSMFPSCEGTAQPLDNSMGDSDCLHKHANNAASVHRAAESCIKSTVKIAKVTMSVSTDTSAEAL

On to `O=C(N[C@@H]1CCCC[C@H]1O)c1cnc(CCC2CC2)c(-c2ccc(Cl)cc2)c1` [Example 2, 5-(4-Chloro-phenyl)-6-(2-cyclopropyl-ethyl)-N-((1R,2R)-2-hydroxy-cyclohexyl)-nicotinamide], for which, in assay [1], the Ki – broadly, a measure of affinity in units of concentration, obtained from inhibition or displacement – was 26 nM.
Still for that read-out and setting: for `O=C(N[C@@H]1CCCC[C@H]1O)c1cnc(CCc2cncnc2)c(-c2ccc(C(F)(F)F)cc2)c1` [Example 3, N-((1R,2R)-2-Hydroxy-cyclohexyl)-6-(2-pyrimidin-5-yl-ethyl)-5-(4-trifluoromethyl-phenyl)-nicotinamide] the value was 60 nM; for `O=C(N[C@@H]1CCCC[C@H]1O)c1cnc(CCc2cccnc2)c(-c2ccc(Cl)cc2)c1` [Example 7, 5-(4-Chloro-phenyl)-N-((1R,2R)-2-hydroxy-cyclohexyl)-6-(2-pyridin-3-yl-ethyl)-nicotinamide], 11 nM.
For the molecule `Cc1c(C(=O)NN2CCCCC2)nn(-c2ccc(Cl)cc2Cl)c1-c1ccc(Cl)cc1` [SR 141716], the “body weight compared to placebo” value in assay [2] is “significantly reduced body weight”. Further, in assay [3], the food intake result is “reduces food intake in wild-type but not knockout mice”.
